For the assay, the target named is T1, MAGL (Homo sapiens, UniProt Q99685).
T1 sequence (Q99685 1-303): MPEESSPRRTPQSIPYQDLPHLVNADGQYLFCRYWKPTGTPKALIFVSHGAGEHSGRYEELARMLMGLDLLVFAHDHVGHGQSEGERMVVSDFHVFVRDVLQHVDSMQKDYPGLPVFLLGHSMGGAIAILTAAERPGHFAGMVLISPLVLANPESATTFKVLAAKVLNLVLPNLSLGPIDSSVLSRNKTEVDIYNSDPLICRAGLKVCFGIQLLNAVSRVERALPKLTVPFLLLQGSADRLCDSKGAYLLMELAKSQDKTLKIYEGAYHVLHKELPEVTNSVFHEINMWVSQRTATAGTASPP
The experiment in a line: 2-AG assay: MAGL inhibitory activity by hydrolysis of 2-arachidonoylglycerol to arachidonic acid, followed by mass spectrometry. It counts as biochemical. Particulars: 15 min preincubation, 30 min reaction at RT, 8 μM 2-arachidonoylglycerol.

The source of these data is US20240383904A1, “HETEROCYCLIC COMPOUNDS” (Hoffmann-La Roche Inc., priority 2021, published 2024).

Usually IC50 stands for the point on the concentration scale where inhibition reaches its midpoint. Lower therefore signals greater potency in that assay. As for `CS(=O)(=O)c1cc(F)ccc1CC1CC2(C1)CN(C(=O)N1CC3(COCC(=O)N3)C1)C2` [Example 147, 2-[6-(4-fluoro-2-mesyl-benzyl)-2-azaspiro[3.3]heptane-2-carbonyl]-8-oxa-2,5-diazaspiro[3.5]nonan-6-one], the midpoint of inhibition, the IC50, lay at 23.2 nM. `O=C1CCC2(CN(C(=O)N3CC4(CCN(Cc5ccc(C(F)(F)F)nc5)CC4)C3)C2)N1` [Example 148, 2-[7-[[6-(trifluoromethyl)-3-pyridyl]methyl]-2,7-diazaspiro[3.5]nonane-2-carbonyl]-2,5-diazaspiro[3.4]octan-6-one] returned an IC50 of 123 nM. `O=C1NC2(CO1)CN(C(=O)N1CC3(CCN(Cc4ccc(C(F)(F)F)cn4)CC3)C1)C2` [Example 149, 2-[7-[[5-(trifluoromethyl)-2-pyridyl]methyl]-2,7-diazaspiro[3.5]nonane-2-carbonyl]-7-oxa-2,5-diazaspiro[3.4]octan-6-one] had an IC50 of 1.68 nM. In turn, `O=C1CCC2(CN(C(=O)N3CC4(CCN(Cc5ccc(C(F)(F)F)cn5)C4)C3)C2)N1` [Example 150, 2-[7-[[5-(trifluoromethyl)-2-pyridyl]methyl]-2,7-diazaspiro[3.4]octane-2-carbonyl]-2,5-diazaspiro[3.4]octan-6-one] came in with an IC50 of 140 nM. Regarding `O=C1NC2(CO1)CN(C(=O)N1CC3(CCN(Cc4ccc(C(F)(F)F)nc4)CC3)C1)C2` [Example 151, 2-[7-[[6-(trifluoromethyl)-3-pyridyl]methyl]-2,7-diazaspiro[3.5]nonane-2-carbonyl]-7-oxa-2,5-diazaspiro[3.4]octan-6-one], it took 196 nM to reach half-maximal inhibition (IC50). To `O=C1CCC2(CN(C(=O)N3CC4(CCN(Cc5ccc(C(F)(F)F)nc5)C4)C3)C2)N1` [Example 152, 2-[7-[[6-(trifluoromethyl)-3-pyridyl]methyl]-2,7-diazaspiro[3.4]octane-2-carbonyl]-2,5-diazaspiro[3.4]octan-6-one] belongs 3.07 nM; to `O=C1NC2(CO1)CN(C(=O)N1CC3(CN(Cc4cc(F)cc(F)c4)C3)C1)C2` [Example 153, 2-[6-(3,5-difluorobenzyl)-2,6-diazaspiro[3.3]heptane-2-carbonyl]-7-oxa-2,5-diazaspiro[3.4]octan-6-one], 4.75 nM; to `O=C1NC2(CO1)CN(C(=O)N1CC3(CCN(Cc4ccc(C(F)(F)F)cn4)C3)C1)C2` [Example 154, 2-[7-[[5-(trifluoromethyl)-2-pyridyl]methyl]-2,7-diazaspiro[3.4]octane-2-carbonyl]-7-oxa-2,5-diazaspiro[3.4]octan-6-one], 4.11 nM. Under `O=C1CCC2(CN(C(=O)N3CC4(CCN(Cc5cnc(C(F)(F)F)cn5)C4)C3)C2)N1` [Example 155, 2-[7-[[5-(trifluoromethyl)pyrazin-2-yl]methyl]-2,7-diazaspiro[3.4]octane-2-carbonyl]-2,5-diazaspiro[3.4]octan-6-one] stands 237 nM; under `O=C1NC2(CO1)CN(C(=O)N1CC3(CCN(Cc4ccc(C(F)(F)F)nc4)C3)C1)C2` [Example 156, 2-[7-[[6-(trifluoromethyl)-3-pyridyl]methyl]-2,7-diazaspiro[3.4]octane-2-carbonyl]-7-oxa-2,5-diazaspiro[3.4]octan-6-one], 5.07 nM; under `O=C1NC2(CO1)CN(C(=O)N1CC3(CCN(Cc4cnc(C(F)(F)F)cn4)C3)C1)C2` [Example 157, 2-[7-[[5-(trifluoromethyl)pyrazin-2-yl]methyl]-2,7-diazaspiro[3.4]octane-2-carbonyl]-7-oxa-2,5-diazaspiro[3.4]octan-6-one], 9.86 nM. Under `O=C1NC2(CO1)CN(C(=O)N1CC3(CCN(Cc4ccc(C(F)(F)F)nn4)C3)C1)C2` [Example 158, 2-[7-[[6-(trifluoromethyl)pyrida-zin-3-yl]methyl]-2,7-diazaspiro[3.4]octane-2-carbonyl]-7-oxa-2,5-diazaspiro[3.4]octan-6-one] stands 33.9 nM; under `O=C1NC2(CO1)CN(C(=O)N1CC3(CN(Cc4ccc(C(F)(F)F)nn4)C3)C1)C2` [Example 159, 2-[6-[[6-(trifluoromethyl)pyrida-zin-3-yl]methyl]-2,6-diazaspiro[3.3]heptane-2-carbonyl]-7-oxa-2,5-diazaspiro[3.4]octan-6-one], 109 nM; under `CS(=O)(=O)c1ccc(CN2CCC3(CC2)CN(C(=O)N2CC4(CCC(=O)N4)C2)C3)cc1` [Example 160, 2-[7-(4-mesylbenzyl)-2,7-diazaspiro[3.5]nonane-2-carbonyl]-2,5-diazaspiro[3.4]octan-6-one], 279 nM. `O=C1NC2(CO1)CN(C(=O)N1CC3(CN(Cc4cnc(C(F)(F)F)nc4)C3)C1)C2` [Example 161, 2-[6-[[2-(trifluoromethyl)pyrimi-din-5-yl]methyl]-2,6-diazaspiro[3.3]heptane-2-carbonyl]-7-oxa-2,5-diazaspiro[3.4]octan-6-one] had an IC50 of 51.5 nM. As to `O=C1NC2(CO1)CN(C(=O)N1CC3(CN(Cc4ncc(F)cc4F)C3)C1)C2` [Example 162, 2-[6-[(3,5-difluoro-2-pyridyl)methyl]-2,6-diazaspiro[3.3]heptane-2-carbonyl]-7-oxa-2,5-diazaspiro[3.4]octan-6-one], half-maximal inhibition (IC50) required 15.1 nM. In turn, `CS(=O)(=O)c1cccc(CN2CCC3(CC2)CN(C(=O)N2CC4(CCC(=O)N4)C2)C3)c1` [Example 163, 2-[7-(3-mesylbenzyl)-2,7-diazaspiro[3.5]nonane-2-carbonyl]-2,5-diazaspiro[3.4]octan-6-one] came in with an IC50 of 2.78 nM. Under `CS(=O)(=O)c1ccc(CN2CC3(C2)CN(C(=O)N2CC4(COC(=O)N4)C2)C3)cc1` [Example 164, 2-[6-(4-mesylbenzyl)-2,6-diazaspiro[3.3]heptane-2-carbonyl]-7-oxa-2,5-diazaspiro[3.4]octan-6-one] stands 52.5 nM; under `Cn1ncc(CC2CC3(C2)CN(C(=O)N2CC4(CCC(=O)N4)C2)C3)c1C(F)(F)F` [Example 165], 0.52 nM; under `Cn1nc(CC2CC3(C2)CN(C(=O)N2CC4(CCC(=O)N4)C2)C3)cc1C(F)(F)F` [Example 166, 2-[6-[[1-methyl-5-(trifluoromethyl)pyrazol-3-yl]methyl]-2-azaspiro[3.3]heptane-2-carbonyl]-2,5-diazaspiro[3.4]octan-6-one], 1.31 nM. Under `Cn1ncc(C(F)(F)F)c1CC1CC2(C1)CN(C(=O)N1CC3(CCC(=O)N3)C1)C2` [Example 167, 2-[6-[[2-methyl-4-(trifluoromethyl)pyrazol-3-yl]methyl]-2-azaspiro[3.3]heptane-2-carbonyl]-2,5-diazaspiro[3.4]octan-6-one] stands 1.72 nM. Molecule `O=C1CCC2(CN(C(=O)N3CC4(CC(Cn5nccc5C(F)(F)F)C4)C3)C2)N1` [Example 168, 2-[6-[[5-(trifluoromethyl)pyrazol-1-yl]methyl]-2-azaspiro[3.3]heptane-2-carbonyl]-2,5-diazaspiro[3.4]octan-6-one] registered an IC50 of 2.45 nM. Under `Cn1cc(CC2CC3(C2)CN(C(=O)N2CC4(CCC(=O)N4)C2)C3)c(C(F)(F)F)n1` [Example 169, 2-[6-[[1-methyl-3-(trifluoromethyl)pyrazol-4-yl]methyl]-2-azaspiro[3.3]heptane-2-carbonyl]-2,5-diazaspiro[3.4]octan-6-one] stands 2.35 nM; under `O=C1COCC2(CN(C(=O)N3CC4(CC(Cc5ccc(C(F)(F)F)cn5)C4)C3)C2)N1` [Example 170, 2-[6-[[5-(trifluoromethyl)-2-pyridyl]methyl]-2-azaspiro[3.3]heptane-2-carbonyl]-8-oxa-2,5-diazaspiro[3.5]nonan-6-one], 7.82 nM; under `O=C1COCC2(CN(C(=O)N3CC4(CC(Cc5ncc(C(F)(F)F)cc5F)C4)C3)C2)N1` [Example 171, 2-[6-[[3-fluoro-5-(trifluoromethyl)-2-pyridyl]methyl]-2-azaspiro[3.3]heptane-2-carbonyl]-8-oxa-2,5-diazaspiro[3.5]nonan-6-one], 1.42 nM. Under `O=C1COCC2(CN(C(=O)N3CC4(CC(Cc5cncc(Cl)c5)C4)C3)C2)N1` [Example 172, 2-[6-[(5-chloro-3-pyridyl)methyl]-2-azaspiro[3.3]heptane-2-carbonyl]-8-oxa-2,5-diazaspiro[3.5]nonan-6-one] stands 38.2 nM; under `O=C1COCC2(CN(C(=O)N3CC4(CC(Cc5cncc(C(F)(F)F)c5)C4)C3)C2)N1` [Example 173, 2-[6-[[5-(trifluoromethyl)-3-pyridyl]methyl]-2-azaspiro[3.3]heptane-2-carbonyl]-8-oxa-2,5-diazaspiro[3.5]nonan-6-one], 20.8 nM; under `O=C1COCC2(CN(C(=O)N3CC4(CC(Cc5ccc(C(F)(F)F)nc5)C4)C3)C2)N1` [Example 174, 2-[6-[[6-(trifluoromethyl)-3-pyridyl]methyl]-2-azaspiro[3.3]heptane-2-carbonyl]-8-oxa-2,5-diazaspiro[3.5]nonan-6-one], 16.7 nM. To `O=C1CCC2(CN(C(=O)N3CC4(CC(Cc5ncc(Cl)cc5F)C4)C3)C2)N1` [Example 175, 2-[6-[(5-chloro-3-fluoro-2-pyridyl)methyl]-2-azaspiro[3.3]heptane-2-carbonyl]-2,5-diazaspiro[3.4]octan-6-one] belongs 1.69 nM. In the case of `O=C1COCC2(CN(C(=O)N3CC4(CC(Cc5ncc(F)cc5Cl)C4)C3)C2)N1` [Example 176, 2-[6-[(3-chloro-5-fluoro-2-pyridyl)methyl]-2-azaspiro[3.3]heptane-2-carbonyl]-8-oxa-2,5-diazaspiro[3.5]nonan-6-one], the IC50 came to 3 nM. Under `O=C1COCC2(CN(C(=O)N3CC4(CC(Cc5ccc(OC(F)(F)F)cn5)C4)C3)C2)N1` [Example 177, 2-[6-[[5-(trifluoromethoxy)-2-pyridyl]methyl]-2-azaspiro[3.3]heptane-2-carbonyl]-8-oxa-2,5-diazaspiro[3.5]nonan-6-one] stands 2.01 nM.
